# Experimental data from US20060276970A1, “Apparatus and method for the ozone preservation of crops” (Biofresh Limited, priority 2003, published 2006).
# Assays:
# Botrytis cinerea [1] = assay: Grey mould lesion development on wound-inoculated tomato fruit in ozone-enriched air; format: in vivo; conditions: 50 ppb ozone, even for 2-8 h, 13° C., 95% RH
# From the text: Fruit were wound-inoculated with a mycelial plug containing the pathogen^2 at day 0, transferred to charcoal-filtered air (CFA) or an ozone enriched CFA environment and then removed at intervals to 'clean air'. ^1 Monitored using duplicate photometric analysers calibrated to US-EPA standards ^2 plugs (2.5 mm diameter) were removed from the advancing margins of 3-day-old B. cinerea cultures (4-5-day-old in the case of A. alternaria) and inserted into a superficial wound made in the surface of the fruit (two wound-inoculations per fruit) FIG. 1. Experimental design: Fruit maintained in 'clean air' (CFA, →) or ozone (50 ppb or 200 ppb (→) and then inoculated (↓) with an agar plug containing the pathogen. Exposure to ozone performed in the dark at 13° C. and 95%. FIG. 2. Impacts of ozone-enrichment on the development of grey mould (Botrytis cinerea) on tomato (Lycopersicon esculentum […]) fruit wound-inoculated with a mycelial plug (Lycopersicon esculentum […]). Fruit were maintained in controlled environment chambers at 13° C. and 95% RH ventilated with charcoal-filtered 'clean' air (CFA, □) or CFA plus a trace level of ozone (50 ppb, ●). For experimental design see FIG. 1. Values represent mean (±SE) for 3-4 replicate fruit. Experiments repeated several times.
# Alternaria alternata [2] = assay: Black spot development on wound-inoculated tomato fruit in ozone-enriched air; format: in vivo; conditions: 50 ppb ozone, even for 2-8 h
# Method: The development of black spot (Alternaria alternata) was suppressed by more than 50% in fruit maintained in an atmosphere containing a trace level of ozone (50 ppb)—even for a relatively short period of time (2-8 h). Fruit were inoculated with a mycelial plug containing the pathogen and the experiment was performed according to design B (FIG. 1).
# FIG. 3. Impacts of ozone-enrichment on the development of black spot (Alternaria alternata) raised on tomato fruit (Lycopersicon esculentum L. cv. Mareta) wound-inoculated with an agar plug containing mycelia of the pathogen. Fruit were maintained in controlled environment chambers at 13° C. and 95% RFL Chambers were ventilated with ‘clean’ (chracoal-filtered) air (CFA, □) or CFA plus a trace level of ozone (50 ppb, ●). Values represent mean (±SE) for 3-4 replicate fruit.
# Alternaria alternata [3] = assay: Spore production and viability on wound-inoculated tomato fruit; format: in vivo; conditions: for Spore prod.: 50 ppb O3, tomato fruit, 13° C., 95% RH, after 9-12 d
# Method: (§1) Fruit were wound-inoculated with a suspension containing c. 25×10^3 spores of Botrytis, Alternaria or Colletotrichum, then incubated in clean air or in an atmosphere containing a trace level of ozone (50 ppb) at 13° C., 95% RH. After 9-12 d, spores were washed from inoculated fruit, counts made on a haemocytometer and recovered spore aliquots inoculated onto agar. In vitro spore germination was monitored following 72 h incubation in ‘clean air’ or ‘clean air’ plus a trace level of ozone.
# Botrytis cinerea [4] = assay: as above; format: in vivo; conditions: for Spore germ.: 50 ppb O3, recovered spores on agar, 72 h incubation; for Spore prod.: 50 ppb O3, tomato fruit, 13° C., 95% RH, after 9-12 d
# Method: as §1
# Colletotrichum coccodes = assay: as above; format: in vivo; conditions: for Spore germ.: 50 ppb O3, recovered spores on agar, 72 h incubation; for Spore prod.: 50 ppb O3, tomato fruit, 13° C., 95% RH, after 9-12 d
# Method: as §1
# Botrytis cinerea [5] = assay: Spore production on wound-inoculated easi-peel citrus, grapes and plums; format: in vivo; conditions: 100 ppb ozone, 13° C., 95% RH, grapes, plums
# Method: Fruit were wound-inoculated with spore suspensions of Botrytis cinerea, then incubated in either clean air or an atmosphere containing a trace level of ozone (100 ppb) at 13° C. and 95% RH.
# FIG. 4. Impact of a trace level of ozone enrichment (solid bars) on the development of Botrytis cinerea (based on spore counts) on easi-peel citrus, grapes & plums Fruit were wound-inoculated with spore suspensions containing 10^3 (‘low’ inoculum concentration), 10^5 (‘medium’ inoculum concentration) or 10^7 (‘high’ inoculum concentration) Botrytis cinerea, then incubated in clean air or an atmosphere containing a trace level of ozone (100 ppb) at 13° C. and 95% RH, After 8-12 d, spores were washed from inoculated fruit, counts made on a haemocytometer and aliquots incubated on agar. Control fruit were maintained in ‘clean air’ (cross-hatch bars).
# Plates 2a & 2b. Impact of a trace level of ozone enrichment on the development of Botrytis cinerea on easi-peel citrus and plums. Fruit were wound-inoculated with/in spore suspensions containing 10^3 (‘low’ inoculum concentration), 10^5 (‘medium’ inoculum concentration) or 10^7 (‘high’ inoculum concentration) Botrytis cinerea, then incubated in clean air or an atmosphere containing a trace level of ozone (100 ppb) at 13° C. and 95% RR Control fruit were maintained in ‘clean air’.
# [6] = test system: silver scurf (Helminthosporium solani); assay: Silver scurf development on stored potato tubers (spore counts, lesion area); format: in vivo; conditions: for Lesion development (%): potato tubers; for Spores/ml: potato tubers cv. Estima, 3.5° C. then 13° C.
# Method: Tubers […] were washed and selected for similar levels of silver scurf (Helminthosporium solani) infection. Prior to storage, tubers were sprayed with water in order to simulate a condensation event to promote the development of the disease. Tubers were then placed in chambers maintained at 3.5° C.±0.5° C., >95% RH) ventilated with either 'clean air' (charcoal-filtered air'; CFA) or 'clean air' plus a trace level of ozone (200 ppb). After four weeks, half the tubers were removed, then the temperature raised to 13±0.5° C. […] A spore count was calculated for each tuber (n=10) using a haemocytometer. Additionally, the initial and final surface area covered in silver scurf lesions was measured using a […] devices image analyser. Taking into account shrinkage of the potato over the storage period, the percentage of each tuber covered in silver scurf was calculated.
# [7] = test system: targeted fungal pathogens; assay: Colony development of fungal pathogens in vitro; format: cell-based; conditions: ozone concentrations upto 5.0 ppm
# From the text: This implies that the observed suppression of spoilage organisms by ozone results from molecular/biochemical changes in the treated produce per se—presumably through subtle shifts in the manner in which plant tissue responds to challenge by pathogens (see FIG. 7).
# Botrytis cinerea [8] = assay: Vaccination: tomato fruit exposed to ozone before wound-inoculation with grey mould; format: in vivo
# Method: Tomato fruit were incubated for varying periods in ‘clean’ air or an atmosphere enriched with a trace level of ozone (50 ppb), then wound-inoculated with a mycelial plug of grey mould (Botrytis cinerea). Two experimental designs were adopted for the investigation of ‘memory’ effects induced by ozone:
# (§2) (a) Fruit were incubated in clean air prior to transfer to an atmosphere containing a trace level of ozone in such a manner that fruit were wound-inoculated with the pathogen at the same physiological age. For gene expression studies, RNA was extracted from fruit snap-frozen in liquid nitrogen 24 h after wounding/inoculation, immediately following exposure to ‘clean air’ or ozone, and after 1 or 2 weeks' storage in ‘clean air’
# Or, (b) Fruit were incubated in clean air or ozone and wound-inoculated with Botrytis cincerea either (i) immediately following the period of exposure, (ii) following 1 weeks' incubation in ‘clean air’ or (iii) following 2 weeks' incubation in ‘clean air’
# FIG. 5. Experimental designs to test whether exposure to a trace level of ozone vaccinates produce against subsequent infection. Tomato fruit were maintained in charcoal filtered air (CPA, →) or ozone (→) prior to wound-inoculation (↓) with grey mould (Botrytis cinerea). […] Lesion development was monitored during storage in clean air, over a 7-d incubation period. […]
# [9] = test system: Aco1, Aos, Chit3α, Chit9b, Glucac, Glucbs, Hpl; assay: Gene expression (RT-PCR) in tomato fruit induced by wounding/pathogen; format: in vivo, Lycopersicon esculentum L.; conditions: 50 ppb ozone
# Method: as §2
# Shifts in gene expression patterns were therefore consistent with the observed effects of trace ozone-enrichment on the development of a variety of fungal pathogens.
# FIG. 7. Ozone-induced suppression of gene expression (probed by RT-PCR) induced by wounding/pathogen. Aco1 (aminocyclopropancarboxylic acid oxidase) and Aos (allene-oxide synthase) govern the production of ethylene and jasmonate, respectively. These are key signalling molecules. Chit3a (chi3 type chitinase acidic), Chit9b (chi9-type chitinase basic), Glucac (β-1-3 glucanase acidic), Glucbs (β-1-3 glucanase basic), and Hpl hydroperoxide lyase) are all involved with defence against pathogens and other stresses. Gapdh was used as the control gene. Measurements made on tomato fruit (Lycopersicon esculentum L.) incubated throughout in controlled environment chambers maintained at 13° C. and 95% RH and ventilated with clean air or 50 ppb ozone. FIG. 7a, immediate; FIG. 7b, 1 week; FIG. 7c 2 weeks.
# [10] = 200 ppb ozone weeks 1-4, NFA weeks 5-8
# [11] = 200 ppb ozone weeks 1-4 and weeks 5-8
compound,measurement,setting,value
O=[O+][O-] [ozone],Grey mould lesion development,Botrytis cinerea [1],dramatically suppressed
same,Suppression of black spot development,Alternaria alternata [2],more than 50%
same,Spore germ.,"Alternaria alternata [3]; 50 ppb O3, recovered spores on agar, 72 h incubation",99.86 ± 0.137
same,Spore prod.,Alternaria alternata [3],dramatically reduced
same,Spore prod.,Alternaria alternata [3]; listed as O3,5.83 ± 0.645
same,Spore germ.,Botrytis cinerea [4],significantly reduced
same,Spore germ.,Botrytis cinerea [4]; listed as O3,96.76 ± 0.613
same,Spore prod.,Botrytis cinerea [4],dramatically reduced
same,Spore prod.,Botrytis cinerea [4]; listed as O3,7.50 ± 1.510
same,Spore germ.,Colletotrichum coccodes,significantly reduced
same,Spore germ.,Colletotrichum coccodes; listed as O3,52.50 ± 4.550
same,Spore prod.,Colletotrichum coccodes,dramatically reduced
same,Spore prod.,Colletotrichum coccodes; listed as O3,2.44 ± 0.526
same,Development of the pathogen (based on spore production),Botrytis cinerea [5],dramatically reduced
same,Lesion development (%),[6]; [10],21.34 a %
same,Spores/ml,[6]; [10],3.9 × 10^6 c Spores/ml
same,Lesion development (%),[6]; [11],12.81 b %
same,Spores/ml,[6]; [11],1.7 × 10^6 b Spores/ml
same,Direct effects on colony development in vitro,[7],No direct effects
same,Persistence of vaccination effect after removal from ozone,Botrytis cinerea [8]; tomato fruit transferred to clean air,persisted for up to two weeks
same,Pathogen development after prior exposure to ozone,"Botrytis cinerea [8]; trace level of ozone (50 ppb), even 2-8 h, before inoculation, tomato fruit",marked suppression
same,Persistence of gene expression effects after transfer to clean air,[9],persisted for upto two weeks
same,Expression of signal-transduction and defence genes,"[9]; 13° C., 95% RH",decline
